Test results as given in patent US20240197623A1, “SILICA-BASED FORMULATIONS OF THERAPEUTIC OLIOGPEPTIDES AND PEPTIDOMIMETICS” (Stealth Bio Therapeutics Inc., priority 2021, published 2024).
Where a SMILES comes first, the peptide text is derived from it. [ ]: non-standard residue; d: D form. Dmt = Cc1cc(O)cc(C)c1C[C@H](N)C(=O)O

Legend:
[1] = Release/stability of API in ammonium bifluoride, stability-indicating RP-HPLC; format: physicochemical; details: for modification of the API by the formulation process: impurities in fresh API vs API released from microparticle formulations
[2] = test system: age-related visual impairment; details: Alam et al., Disease Models & Mechanisms (2021); cited from earlier work
[3] = test system: patients with intermediate age-related macular degeneration (AMD) and high-risk drusen (HRD); details: subcutaneous administration, ReCLAIM, Ophthalmology Science 2022; cited from earlier work

| SMILES | Purity ([1]; Control/standard: 16 μg/mL Compound I in H2O) [%] | Purity ([1]; Control/standard: 40 μg/mL Compound I in H2O) [%] | Purity ([1]; Spiked: 16 μg/mL Compound I in 0.1M NH4HF2) [%] | Purity ([1]; Spiked: 40 μg/mL Compound I in 0.1M NH4HF2) [%] | modification of the API by the formulation process [1] | treatment of photopic age-related loss of spatial vision [2] | safety and tolerability [3] |
| --- | --- | --- | --- | --- | --- | --- | --- |
| Cc1cc(O)cc(C)c1C[C@H](NC(=O)[C@H](N)CCCNC(=N)N)C(=O)N[C@@H](CCCCN)c1nc(Cc2ccccc2)no1 [Compound I] | 99.1 | 98.4 | 99.2 | 98.6 | not significantly modified |  |  |
| Cc1cc(O)cc(C)c1C[C@H](NC(=O)[C@H](N)CCCNC(=N)N)C(=O)N[C@@H](CCCCN)C(=O)N[C@@H](Cc1ccccc1)C(N)=O [elamipretide] (H-[dR][Dmt]KF-NH2) |  |  |  |  | not significantly modified | effective | safe and well-tolerated |
